Data from PMC11903733 (Frontiers in Pharmacology, 2025).

Key:
Assay in all cases: SelectScreen kinase profiling
Assay type in all cases: biochemical
[1] = molecular target: AXL (Homo sapiens, UniProt P30530)
Experimental: (§1) The kinase selectivity analysis of LTM-1 was performed utilizing the SelectScreen Kinase Profiling Service offered by Thermo Fisher Scientific. In a dose-response assay featuring a ten-point dilution series from 0.25 μM to 128 μM, the inhibitory effects of LTM-1 on substrate phosphorylation reactions catalyzed by a panel of kinases were assessed. Consequently, the half-maximal inhibitory concentrations (IC50 values) for each kinase were determined.

[2] = molecular target: BLK (Homo sapiens, UniProt P51451)
Experimental: as §1

[3] = molecular target: BTK (Homo sapiens, UniProt Q06187)
Experimental: as §1

[4] = molecular target: CDK1 (Homo sapiens, UniProt P06493)
Experimental: as §1

[5] = molecular target: CDK12 (Homo sapiens, UniProt Q9NYV4)
Experimental: as §1

[6] = molecular target: CDK3 (Homo sapiens, UniProt Q00526)
Experimental: as §1

[7] = molecular target: CDK4 (Homo sapiens, UniProt P11802)
Experimental: as §1

[8] = molecular target: CDK5 (Homo sapiens, UniProt Q00535)
Experimental: as §1

[9] = molecular target: CDK6 (Homo sapiens, UniProt Q00534)
Experimental: as §1

[10] = molecular target: CDK7 (Homo sapiens, UniProt P50613)
Experimental: as §1

[11] = molecular target: CDK8 (Homo sapiens, UniProt P49336)
Experimental: as §1

[12] = molecular target: DDR1 (Homo sapiens, UniProt Q08345)
Experimental: as §1

[13] = molecular target: DDR2 (Homo sapiens, UniProt Q16832)
Experimental: as §1

[14] = molecular target: EPHA1 (Homo sapiens, UniProt P21709)
Experimental: as §1

[15] = molecular target: EPHB1 (Homo sapiens, UniProt P54762)
Experimental: as §1

[16] = molecular target: EPHB2 (Homo sapiens, UniProt P29323)
Experimental: as §1

[17] = molecular target: EPHB4 (Homo sapiens, UniProt P54760)
Experimental: as §1

[18] = molecular target: ERBB2 (Homo sapiens, UniProt P04626)
Experimental: as §1

[19] = molecular target: ERBB4 (Homo sapiens, UniProt Q15303)
Experimental: as §1

[20] = molecular target: FGFR1 (Homo sapiens, UniProt P11362)
Experimental: as §1

[21] = molecular target: FGFR2 (Homo sapiens, UniProt P21802)
Experimental: as §1

[22] = molecular target: FGFR3 (Homo sapiens, UniProt P22607)
Experimental: as §1

[23] = molecular target: FGFR4 (Homo sapiens, UniProt P22455)
Experimental: as §1

[24] = molecular target: FGR (Homo sapiens, UniProt P09769)
Experimental: as §1

[25] = molecular target: ITK (Homo sapiens, UniProt Q08881)
Experimental: as §1

[26] = molecular target: JAK2 (Homo sapiens, UniProt O60674)
Experimental: as §1

[27] = molecular target: JAK3 (Homo sapiens, UniProt P52333)
Experimental: as §1

[28] = molecular target: LYN (Homo sapiens, UniProt P07948)
Experimental: as §1

[29] = molecular target: MERTK (Homo sapiens, UniProt Q12866)
Experimental: as §1

[30] = molecular target: MET (Homo sapiens, UniProt P08581)
Experimental: as §1

[31] = molecular target: MST1R (Homo sapiens, UniProt Q04912)
Experimental: as §1

[32] = molecular target: MUSK (Homo sapiens, UniProt O15146)
Experimental: as §1

[33] = molecular target: NTRK2 (Homo sapiens, UniProt Q16620)
Experimental: as §1

[34] = molecular target: NTRK3 (Homo sapiens, UniProt Q16288)
Experimental: as §1

[35] = molecular target: PDGFRA (Homo sapiens, UniProt P16234)
Experimental: as §1

[36] = molecular target: PLK2 (Homo sapiens, UniProt Q9NYY3)
Experimental: as §1

[37] = molecular target: PTK2 (Homo sapiens, UniProt Q05397)
Experimental: as §1

[38] = molecular target: RAF1 (Homo sapiens, UniProt P04049, Y340D/Y341D)
Experimental: as §1

Measured: IC50

Sequence of FGFR3 (P22607 23-806): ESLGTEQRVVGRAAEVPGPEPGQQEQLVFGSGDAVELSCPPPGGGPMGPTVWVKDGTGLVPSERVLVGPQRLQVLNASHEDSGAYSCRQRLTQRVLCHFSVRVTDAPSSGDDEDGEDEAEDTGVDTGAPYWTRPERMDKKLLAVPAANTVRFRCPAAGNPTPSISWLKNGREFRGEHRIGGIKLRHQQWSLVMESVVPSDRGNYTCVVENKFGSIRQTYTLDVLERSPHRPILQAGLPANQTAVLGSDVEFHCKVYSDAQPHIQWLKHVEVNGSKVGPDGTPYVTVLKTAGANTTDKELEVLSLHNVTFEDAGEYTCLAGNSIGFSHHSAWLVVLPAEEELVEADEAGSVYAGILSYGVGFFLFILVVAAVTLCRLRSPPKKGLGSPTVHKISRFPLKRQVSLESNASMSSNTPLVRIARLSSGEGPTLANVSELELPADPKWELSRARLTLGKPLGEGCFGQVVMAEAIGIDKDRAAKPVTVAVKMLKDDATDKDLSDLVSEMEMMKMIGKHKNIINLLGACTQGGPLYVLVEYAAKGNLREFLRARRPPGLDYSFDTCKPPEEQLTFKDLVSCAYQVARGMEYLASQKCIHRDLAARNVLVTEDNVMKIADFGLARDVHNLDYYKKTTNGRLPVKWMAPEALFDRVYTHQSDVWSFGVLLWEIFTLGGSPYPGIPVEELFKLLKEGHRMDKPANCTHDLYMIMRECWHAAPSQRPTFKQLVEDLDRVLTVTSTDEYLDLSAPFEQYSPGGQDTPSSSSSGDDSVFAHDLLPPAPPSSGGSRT
Sequence of ITK (Q08881 whole entry): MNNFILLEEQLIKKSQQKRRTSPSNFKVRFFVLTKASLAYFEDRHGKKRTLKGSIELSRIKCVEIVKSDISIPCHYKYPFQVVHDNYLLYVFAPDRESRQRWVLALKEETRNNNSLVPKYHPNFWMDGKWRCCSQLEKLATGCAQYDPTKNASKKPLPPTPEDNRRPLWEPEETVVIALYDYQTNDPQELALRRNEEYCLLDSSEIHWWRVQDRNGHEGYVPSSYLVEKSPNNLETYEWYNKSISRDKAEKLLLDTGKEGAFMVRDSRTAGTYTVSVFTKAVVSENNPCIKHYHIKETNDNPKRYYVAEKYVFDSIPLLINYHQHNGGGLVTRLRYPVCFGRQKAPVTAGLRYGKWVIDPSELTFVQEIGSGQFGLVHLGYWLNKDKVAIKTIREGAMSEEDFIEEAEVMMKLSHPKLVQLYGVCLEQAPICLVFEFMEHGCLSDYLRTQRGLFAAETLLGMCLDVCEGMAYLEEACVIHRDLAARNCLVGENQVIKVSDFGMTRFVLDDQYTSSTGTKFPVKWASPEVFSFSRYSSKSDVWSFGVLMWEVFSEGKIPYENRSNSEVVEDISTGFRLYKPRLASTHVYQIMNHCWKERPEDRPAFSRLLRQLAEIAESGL
Sequence of CDK7 (P50613 whole entry): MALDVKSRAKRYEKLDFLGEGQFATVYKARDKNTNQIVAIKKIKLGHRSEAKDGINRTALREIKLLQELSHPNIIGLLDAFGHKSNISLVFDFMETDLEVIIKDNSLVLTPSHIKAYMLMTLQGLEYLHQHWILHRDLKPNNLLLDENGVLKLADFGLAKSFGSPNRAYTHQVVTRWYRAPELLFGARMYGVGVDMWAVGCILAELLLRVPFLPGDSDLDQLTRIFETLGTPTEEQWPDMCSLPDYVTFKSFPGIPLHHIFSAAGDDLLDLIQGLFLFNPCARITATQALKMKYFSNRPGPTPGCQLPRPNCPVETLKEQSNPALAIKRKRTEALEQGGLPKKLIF
Sequence of CDK7 (P51946 whole entry partner): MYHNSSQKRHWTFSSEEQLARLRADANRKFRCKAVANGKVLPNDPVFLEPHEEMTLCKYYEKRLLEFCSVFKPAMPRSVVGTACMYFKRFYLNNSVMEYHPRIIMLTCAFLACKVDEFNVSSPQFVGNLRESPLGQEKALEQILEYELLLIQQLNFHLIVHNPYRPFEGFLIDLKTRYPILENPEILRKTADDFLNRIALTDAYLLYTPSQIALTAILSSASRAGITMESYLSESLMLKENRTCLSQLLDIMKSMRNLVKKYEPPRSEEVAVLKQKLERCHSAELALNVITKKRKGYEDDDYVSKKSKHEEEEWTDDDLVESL
Sequence of CDK7 (P51948 whole entry partner): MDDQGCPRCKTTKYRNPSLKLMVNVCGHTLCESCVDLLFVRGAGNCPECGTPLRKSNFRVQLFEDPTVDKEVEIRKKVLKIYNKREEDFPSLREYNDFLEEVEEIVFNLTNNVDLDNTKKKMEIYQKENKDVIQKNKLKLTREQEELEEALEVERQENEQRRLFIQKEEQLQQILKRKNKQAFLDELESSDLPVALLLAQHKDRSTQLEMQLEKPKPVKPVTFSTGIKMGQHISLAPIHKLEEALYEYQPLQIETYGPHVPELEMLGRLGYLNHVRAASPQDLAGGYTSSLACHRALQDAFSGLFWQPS
Sequence of MUSK (O15146 24-869): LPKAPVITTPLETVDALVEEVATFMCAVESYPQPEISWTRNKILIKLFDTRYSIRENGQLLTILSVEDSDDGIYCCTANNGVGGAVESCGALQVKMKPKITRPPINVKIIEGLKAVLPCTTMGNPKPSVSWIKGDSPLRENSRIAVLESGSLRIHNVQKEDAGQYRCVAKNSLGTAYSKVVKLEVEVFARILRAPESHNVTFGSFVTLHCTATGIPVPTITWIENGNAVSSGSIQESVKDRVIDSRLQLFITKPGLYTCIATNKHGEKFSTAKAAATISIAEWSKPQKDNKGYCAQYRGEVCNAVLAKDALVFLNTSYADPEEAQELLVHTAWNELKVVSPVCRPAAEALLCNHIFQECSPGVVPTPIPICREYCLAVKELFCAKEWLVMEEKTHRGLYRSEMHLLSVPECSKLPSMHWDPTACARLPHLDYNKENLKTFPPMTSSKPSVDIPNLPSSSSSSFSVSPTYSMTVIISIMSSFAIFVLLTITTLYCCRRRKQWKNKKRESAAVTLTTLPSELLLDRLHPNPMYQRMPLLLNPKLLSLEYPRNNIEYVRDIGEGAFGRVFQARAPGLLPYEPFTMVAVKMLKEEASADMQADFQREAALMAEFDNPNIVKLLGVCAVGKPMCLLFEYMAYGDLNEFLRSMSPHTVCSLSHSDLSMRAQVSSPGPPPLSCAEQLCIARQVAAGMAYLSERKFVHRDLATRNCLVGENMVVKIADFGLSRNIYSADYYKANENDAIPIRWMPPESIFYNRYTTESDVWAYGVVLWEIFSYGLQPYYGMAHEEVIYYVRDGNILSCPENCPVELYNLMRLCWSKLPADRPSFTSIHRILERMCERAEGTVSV
Sequence of CDK5 (Q00535 whole entry): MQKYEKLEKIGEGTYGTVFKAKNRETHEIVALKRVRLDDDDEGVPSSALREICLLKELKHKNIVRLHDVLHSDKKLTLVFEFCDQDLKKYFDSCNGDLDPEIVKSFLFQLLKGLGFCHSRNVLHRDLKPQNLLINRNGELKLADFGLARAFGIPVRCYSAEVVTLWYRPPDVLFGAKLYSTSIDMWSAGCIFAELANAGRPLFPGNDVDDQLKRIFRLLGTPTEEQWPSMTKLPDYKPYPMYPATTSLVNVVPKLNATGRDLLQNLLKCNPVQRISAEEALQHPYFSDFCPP
Sequence of CDK5 (Q15078 99-307 partner limits assumed): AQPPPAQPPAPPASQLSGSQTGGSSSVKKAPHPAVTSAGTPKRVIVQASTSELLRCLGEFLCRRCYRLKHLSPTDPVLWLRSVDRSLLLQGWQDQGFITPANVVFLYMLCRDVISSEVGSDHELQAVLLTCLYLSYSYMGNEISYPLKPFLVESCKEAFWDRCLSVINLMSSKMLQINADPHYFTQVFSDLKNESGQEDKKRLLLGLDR
Sequence of LYN (P07948 whole entry): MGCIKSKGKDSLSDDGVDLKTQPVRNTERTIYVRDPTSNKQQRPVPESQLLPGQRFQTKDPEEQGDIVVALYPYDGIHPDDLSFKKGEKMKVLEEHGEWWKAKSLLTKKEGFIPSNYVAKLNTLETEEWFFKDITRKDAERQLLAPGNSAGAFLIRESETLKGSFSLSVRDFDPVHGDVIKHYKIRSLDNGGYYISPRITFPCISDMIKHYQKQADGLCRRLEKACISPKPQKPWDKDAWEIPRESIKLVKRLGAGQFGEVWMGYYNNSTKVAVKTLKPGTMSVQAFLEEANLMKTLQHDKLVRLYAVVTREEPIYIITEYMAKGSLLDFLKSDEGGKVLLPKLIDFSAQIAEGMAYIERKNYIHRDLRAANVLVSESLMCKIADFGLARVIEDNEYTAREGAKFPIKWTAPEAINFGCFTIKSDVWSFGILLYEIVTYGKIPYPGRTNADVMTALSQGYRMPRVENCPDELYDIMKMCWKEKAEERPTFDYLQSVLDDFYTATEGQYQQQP
Sequence of CDK6 (Q00534 whole entry): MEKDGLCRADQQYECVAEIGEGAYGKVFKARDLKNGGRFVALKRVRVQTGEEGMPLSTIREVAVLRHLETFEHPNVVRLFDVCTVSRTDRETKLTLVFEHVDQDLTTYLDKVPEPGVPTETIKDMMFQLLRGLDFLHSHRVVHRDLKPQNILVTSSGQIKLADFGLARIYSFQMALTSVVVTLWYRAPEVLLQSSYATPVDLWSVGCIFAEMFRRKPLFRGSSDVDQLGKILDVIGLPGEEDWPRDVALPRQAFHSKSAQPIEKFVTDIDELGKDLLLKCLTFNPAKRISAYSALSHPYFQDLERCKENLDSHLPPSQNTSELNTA
Sequence of CDK6 (P24385 whole entry partner): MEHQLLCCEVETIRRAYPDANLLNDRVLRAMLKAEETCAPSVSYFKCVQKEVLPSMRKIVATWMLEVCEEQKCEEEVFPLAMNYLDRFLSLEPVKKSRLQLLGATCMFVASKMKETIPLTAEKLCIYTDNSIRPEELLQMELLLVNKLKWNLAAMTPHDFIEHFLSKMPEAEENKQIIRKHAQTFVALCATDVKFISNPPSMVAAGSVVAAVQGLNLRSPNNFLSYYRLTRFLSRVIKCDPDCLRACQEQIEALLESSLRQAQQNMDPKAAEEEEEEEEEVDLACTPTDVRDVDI

O=S(=O)(c1ccc(C(O)CO)c(C(F)(F)F)c1)N1CCc2cc(C3CC3NCC3CCNCC3)ccc21 (centres unmarked) [LTM-1]
> 10 µM: [1] | [2] | [3] | [4] | [5] | [6] | [7] | [8] | [9] | [10] | [11] | [12] | [13] | [14] | [15] | [16] | [17] | [18] | [19] | [20] | [21] | [22] | [23] | [24] | [25] | [26] | [27] | [28] | [29] | [30] | [31] | [32] | [33] | [34] | [35] | [36] | [37] | [38]
